Source: PubChem BioAssay AID330 (DTP/NCI, 2004)
Several values for one entry are separate records, joined by “and”; a condition that tells them apart may be missing. Identical values can stand only once. Toxic doses and inconclusive results are not listed. The calls were made as follows: active = survival T/C of 150% or more; inactive = T/C below 125% in these data.

System: P388 leukemia ip, CD2F1 mice, survival T/C
Assay: NCI In Vivo Anticancer Drug Screen. Data for tumor model P388 Leukemia (intraperitoneal) in CD2F1 (CDF1) mice
Conditions: endpoint: median survival time, higher = longer survival
How it was run: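 Mice carrying the transplanted tumor received test compound or vehicle. Survival was recorded in each group, and the value is the treated-group measurement divided by that of the vehicle-treated control group.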

[1] = dose: 25.0 mg/kg/injection, schedule: Q01DX009 (ip), vehicle: saline
[2] = dose: 50.0 mg/kg/injection, schedule: Q01DX009 (ip), vehicle: saline
[3] = dose: 50.0 mg/kg/injection, schedule: Q01DX009 (ip), vehicle: Klucel (hydroxypropylcellulose) (HPC)
[4] = dose: 100.0 mg/kg/injection, schedule: Q01DX009 (ip), vehicle: Klucel (hydroxypropylcellulose) (HPC)
[5] = dose: 60.0 mg/kg/injection, schedule: Q01DX005 (ip), vehicle: Klucel (hydroxypropylcellulose) (HPC)
[6] = dose: 120.0 mg/kg/injection, schedule: Q01DX005 (ip), vehicle: Klucel (hydroxypropylcellulose) (HPC)
[7] = dose: 240.0 mg/kg/injection, schedule: Q01DX005 (ip), vehicle: Klucel (hydroxypropylcellulose) (HPC)
[8] = dose: 50.0 mg/kg/injection, schedule: Q01DX005 (ip), vehicle: Klucel (hydroxypropylcellulose) (HPC)
[9] = dose: 100.0 mg/kg/injection, schedule: Q01DX005 (ip), vehicle: Klucel (hydroxypropylcellulose) (HPC)
[10] = dose: 200.0 mg/kg/injection, schedule: Q01DX005 (ip), vehicle: Klucel (hydroxypropylcellulose) (HPC)
[11] = dose: 200.0 mg/kg/injection, schedule: Q01DX009 (ip), vehicle: Klucel (hydroxypropylcellulose) (HPC)

Measured: T/C

O=[N+]([O-])O.[Al]
inactive: [1] 100 % of control | [2] 91 % of control | dose: 100.0 mg/kg/injection, schedule: Q01DX009 (ip), vehicle: saline 86 % of control | dose: 100.0 mg/kg/injection, schedule: Q04DX003 (ip), vehicle: saline 90 % of control

COC(SC)c1cc(-c2c(Cl)cccc2Cl)no1 (stereo not drawn)
inactive: dose: 60.0 mg/kg/injection, schedule: Q01DX005 (ip), vehicle: saline with Tween-80 93 % of control | dose: 120.0 mg/kg/injection, schedule: Q01DX005 (ip), vehicle: saline with Tween-80 103 % of control | dose: 240.0 mg/kg/injection, schedule: Q01DX005 (ip), vehicle: saline with Tween-80 107 % of control

O=C(NC(=O)c1c(F)cccc1F)Nc1ccc(Cl)cn1
inactive: dose: 50.0 mg/kg/injection, schedule: Q04DX002 (ip), vehicle: saline with Tween-80 95 % of control | dose: 100.0 mg/kg/injection, schedule: Q04DX002 (ip), vehicle: saline with Tween-80 100 % of control | dose: 200.0 mg/kg/injection, schedule: Q04DX002 (ip), vehicle: saline with Tween-80 98 % of control

CC/C(=C(\c1ccccc1)c1ccc(OCCN(C)C)cc1)c1ccccc1
inactive: dose: 0.78 mg/kg/injection, schedule: Q01DX009 (ip), vehicle: suspension in saline 94 % of control | dose: 1.56 mg/kg/injection, schedule: Q01DX009 (ip), vehicle: suspension in saline 94 % of control | dose: 3.12 mg/kg/injection, schedule: Q01DX009 (ip), vehicle: suspension in saline 94 % of control | dose: 6.25 mg/kg/injection, schedule: Q01DX009 (ip), vehicle: suspension in saline 98 % of control | dose: 12.5 mg/kg/injection, schedule: Q01DX009 (ip), vehicle: Klucel (hydroxypropylcellulose) (HPC) 105 % of control | dose: 12.5 mg/kg/injection, schedule: Q01DX009 (ip), vehicle: suspension in saline 100 % of control | dose: 25.0 mg/kg/injection, schedule: Q01DX009 (ip), vehicle: Klucel (hydroxypropylcellulose) (HPC) 102 % of control | dose: 25.0 mg/kg/injection, schedule: Q01DX009 (ip), vehicle: suspension in saline 104 % of control | dose: 50.0 mg/kg/injection, schedule: Q01DX004 (ip), vehicle: saline with Tween-80 92 % of control | [3] 110 % of control | dose: 50.0 mg/kg/injection, schedule: Q01DX009 (ip), vehicle: suspension in saline 101 % of control | dose: 100.0 mg/kg/injection, schedule: Q01DX004 (ip), vehicle: saline with Tween-80 82 % of control | [4] 117 % of control | dose: 100.0 mg/kg/injection, schedule: Q01DX009 (ip), vehicle: suspension in saline 92 % of control

CCOC(=O)C1=C(C(C)=O)C(c2cccc([N+](=O)[O-])c2)C(C(C)=O)=C(C(=O)OCC)N1
inactive: [5] 98 % of control | [6] 88 % of control | [7] 95 % of control

COc1ccc(CCN2C(=O)CCC3=C2CCC3=O)cc1OC
inactive: dose: 25.0 mg/kg/injection, schedule: Q01DX005 (ip), vehicle: Klucel (hydroxypropylcellulose) (HPC) 100 % of control | [8] 98 % of control | [9] 100 % of control | [10] 106 % of control

Cc1c(C(=O)O)nc(-c2ccc3c(n2)C(=O)C(N)=CC3=O)c2[nH]c3ccccc3c12
inactive: dose: 0.1 mg/kg/injection, schedule: Q01DX009 (ip), vehicle: distilled water + Tween-80 + alcohol 110 % of control | dose: 0.2 mg/kg/injection, schedule: Q01DX009 (ip), vehicle: distilled water + Tween-80 + alcohol 116 % of control | dose: 0.4 mg/kg/injection, schedule: Q01DX009 (ip), vehicle: distilled water + Tween-80 + alcohol 112 % of control | dose: 0.8 mg/kg/injection, schedule: Q01DX009 (ip), vehicle: distilled water + Tween-80 + alcohol 113 % of control

C1=CC(=C(C2CCC(Nc3ccccc3)CC2)C2CCC(Nc3ccccc3)CC2)C=CC1=Nc1ccccc1 (stereo not drawn)
inactive: dose: 50.0 mg/kg/injection, schedule: Q01DX009 (ip), vehicle: saline with Tween-80 100 % of control | dose: 100.0 mg/kg/injection, schedule: Q01DX009 (ip), vehicle: saline with Tween-80 109 % of control | dose: 200.0 mg/kg/injection, schedule: Q01DX009 (ip), vehicle: saline with Tween-80 109 % of control

CC1C(=O)C(Cl)(Cl)C1(C)C (stereo not drawn)
inactive: dose: 100.0 mg/kg/injection, schedule: Q01DX001 (ip), vehicle: saline with Tween-80 106 % of control | dose: 200.0 mg/kg/injection, schedule: Q01DX001 (ip), vehicle: saline with Tween-80 110 % of control

COc1ccc(/C=N/NC(=O)CNC(=O)n2ccnc2)cc1
inactive: dose: 50.0 mg/kg/injection, schedule: Q01DX005 (ip), vehicle: saline with Tween-80 100 % of control | dose: 100.0 mg/kg/injection, schedule: Q01DX005 (ip), vehicle: saline with Tween-80 92 % of control | dose: 200.0 mg/kg/injection, schedule: Q01DX005 (ip), vehicle: saline with Tween-80 91 % of control

C[C@@]12CCC[C@@](C)(C(=O)O)[C@H]1CC[C@]13C[C@@H](CO)[C@@H](CC[C@H]12)C3
inactive: [8] 99 % of control | [9] 90 % of control | [10] 87 % of control

CCOC(=O)C1c2cccc(O)c2CCN1C(C)=O (stereo not drawn)
inactive: [5] 100 % of control | [6] 100 % of control | [7] 98 % of control

CCOP(=O)(O)SP(=O)(O)OCC.CCOP(=O)(O)SP(=O)(O)OCC.[Mn]
inactive: dose: 50.0 mg/kg/injection, schedule: Q04DX002 (ip), vehicle: saline 117 % of control | dose: 100.0 mg/kg/injection, schedule: Q04DX002 (ip), vehicle: saline 113 % of control and 117 % of control

C[C@H]1COC(c2ccccn2)=N1
inactive: dose: 60.0 mg/kg/injection, schedule: Q01DX005 (ip), vehicle: saline 105 % of control | dose: 120.0 mg/kg/injection, schedule: Q01DX005 (ip), vehicle: saline 106 % of control | dose: 240.0 mg/kg/injection, schedule: Q01DX005 (ip), vehicle: saline 96 % of control

CC(=O)/C=C(\C)Nc1ccccc1
inactive: dose: 12.5 mg/kg/injection, schedule: Q01DX009 (ip), vehicle: saline 106 % of control | [1] 102 % of control | [2] 91 % of control and 97 % of control | dose: 200.0 mg/kg/injection, schedule: Q01DX009 (ip), vehicle: saline 97 % of control

Nc1nc(N)nc(NCCSS(=O)(=O)O)n1
inactive: [3] 94 % of control | [4] 94 % of control | [11] 91 % of control

O=C(c1ccccc1)c1nc(-c2ccccc2)oc1-c1ccccc1
inactive: dose: 100.0 mg/kg/injection, schedule: Q01DX001 (ip), vehicle: saline 100 % of control | dose: 200.0 mg/kg/injection, schedule: Q01DX001 (ip), vehicle: saline 108 % of control | dose: 400.0 mg/kg/injection, schedule: Q01DX001 (ip), vehicle: saline 99 % of control

O=C(COc1nccc2nc(-c3ccccc3)cn12)c1ccccc1
inactive: dose: 1.56 mg/kg/injection, schedule: Q01DX009 (ip), vehicle: Klucel (hydroxypropylcellulose) (HPC) 96 % of control | dose: 3.12 mg/kg/injection, schedule: Q01DX009 (ip), vehicle: Klucel (hydroxypropylcellulose) (HPC) 89 % of control | dose: 6.25 mg/kg/injection, schedule: Q01DX009 (ip), vehicle: Klucel (hydroxypropylcellulose) (HPC) 89 % of control and 92 % of control | dose: 12.5 mg/kg/injection, schedule: Q01DX001 (ip), vehicle: Klucel (hydroxypropylcellulose) (HPC) 95 % of control | dose: 25.0 mg/kg/injection, schedule: Q01DX001 (ip), vehicle: Klucel (hydroxypropylcellulose) (HPC) 95 % of control | dose: 50.0 mg/kg/injection, schedule: Q01DX001 (ip), vehicle: Klucel (hydroxypropylcellulose) (HPC) 96 % of control

CSc1cccc(NC(=O)OCCOc2ccc([N+](=O)[O-])cc2)c1
inactive: [3] 98 % of control | [4] 101 % of control | [11] 99 % of control
